Molecular target: MutS (Pseudomonas aeruginosa, UniProt Q9HY08)
Assay: biochemical

Sequence of MutS (Q9HY08 whole entry): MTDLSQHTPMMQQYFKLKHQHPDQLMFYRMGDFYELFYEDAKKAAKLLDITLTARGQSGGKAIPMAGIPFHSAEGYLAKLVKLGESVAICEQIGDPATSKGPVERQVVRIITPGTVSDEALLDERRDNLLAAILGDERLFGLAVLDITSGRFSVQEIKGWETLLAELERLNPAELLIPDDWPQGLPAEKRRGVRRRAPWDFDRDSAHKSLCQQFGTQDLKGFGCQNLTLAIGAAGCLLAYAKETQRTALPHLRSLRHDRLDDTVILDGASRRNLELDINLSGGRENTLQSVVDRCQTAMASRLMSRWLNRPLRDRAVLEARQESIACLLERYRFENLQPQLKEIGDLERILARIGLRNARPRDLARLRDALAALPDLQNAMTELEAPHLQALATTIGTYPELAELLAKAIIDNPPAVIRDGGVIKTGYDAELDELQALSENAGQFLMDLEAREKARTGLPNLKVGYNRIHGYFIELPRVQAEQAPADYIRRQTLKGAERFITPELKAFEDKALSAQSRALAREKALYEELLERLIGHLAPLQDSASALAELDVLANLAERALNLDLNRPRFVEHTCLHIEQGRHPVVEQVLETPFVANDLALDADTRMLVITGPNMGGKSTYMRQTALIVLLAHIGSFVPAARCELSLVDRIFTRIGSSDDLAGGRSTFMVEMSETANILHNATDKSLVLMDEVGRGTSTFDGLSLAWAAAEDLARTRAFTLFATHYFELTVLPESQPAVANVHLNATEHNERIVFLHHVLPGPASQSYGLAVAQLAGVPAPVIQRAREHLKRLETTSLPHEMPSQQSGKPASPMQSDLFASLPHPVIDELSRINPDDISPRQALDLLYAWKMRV

## Nc1ncnc2c1ncn2[C@@H]1O[C@H](COP(=O)(O)OP(=O)(O)OP(=O)(O)O)[C@@H](O)[C@H]1O [ATP]
  EC50: 618 ± 49 µM
